Experimental data published in US20090176714A1, “METHOD OF REDUCING THE EFFECTS OF ABeta AND COMPOSITIONS THEREFORE” (priority 2004, published 2009).

Columns and labels:
human cortical slices = assay: Aβ-induced cell death (EthD-1/calcein AM) in human organotypic cortical cultures; assay type: cell-based
Source text: Four patients with intractable epilepsy who had elected to undergo a temporal lobe resection were recruited for this study. […] However, the overlying temporal cortex is normal. The age of the subjects ranged from 20 to 49. Brain tissue was obtained with informed consent from all patients.
Brain tissue was removed in large, intact pieces by electrocautery. Tissue obtained from the temporal cortex was approximately 3 cm×2 cm×1.5-2 cm. Immediately following removal, the tissue was placed in ice-cold Neuregen-I media (Brainbits, Springfield, Ill.), a CO2 independent transport and holding medium, and transported to a tissue culture laboratory. Meninges were removed before cutting the tissue with a scalpel to produce blocks about 0.5-1 cm^3 such that each gyrus was kept as intact as possible and the cortical layers were preserved. As described previously, incisions were made perpendicular to the longitudinal axis of the gyrus and along the white matter (Verwer et al., Exp. Gerontol., 38:167-172 (2003)). A vibratome was used to cut 400 μm thick slices at a plane perpendicular to the longitudinal axis of the gyrus. Thus, all cortical layers and a small amount of white matter were included in a slice. Alternately, small tissue pieces, which were usually obtained from the hippocampus, were cut at 400 μm using a McIlwain tissue chopper. No more than 2 slices were placed on a filter insert with a 30 mm diameter and a 0.4 μm filter pore size (Millipore, Billerica, Mass.) held in 6-well culture plates. For the first 12 hours, slices were kept in 1-1.2 mL Neurobasal media with B-27 supplement, 0.5 mM glutamine, and 1% penicillin/streptomycin (Invitrogen). Subsequently, the media was changed every 2 days using 1 mL of media without antibiotics. Organotypic cultures were maintained in a humidified incubator at 37° C. in 5% O2, 5% CO2, and 90% N for 4 to 28 days.
Cell death and viability was determined on live slices using the fluorescent probes from Molecular Probes' Live/Dead Kit. After a 40 minute incubation in calcein AM (1:400) and ethidium homodimer (1:1000) in phosphate buffered saline, slices were visualized at 200× magnification with an inverted Nikon Diaphot 200 microscope using the Bio-Rad MRC-1024 Laser Scanning Confocal system (Hercules, Calif.). Random images were captured at the emission spectrum of each probe, and Scion Image software (Frederick, Md.) was used to quantify the number of live and dead cells. At least three areas were imaged and used to determine the percent death for each slice. The percent death was calculated as the number of EthD-1 positive cells divided by the total number of EthD-1 and calcein AM positive cells.
β-amyloid1-42 and reverse Aβ (Aβ42-1) were obtained from BACHEM (Torrance, Calif.). These peptides were dissolved in 0.1% NH3OH at 222 μM. For treatments, Aβ or reverse Aβ was aggregated at 50 μM in Neurobasal media with B-27 supplement and 0.5 mM glutamine at 37° C. for 24 hours. Then, the slice culture media was removed, and the slices were treated with 1 mL of 25 μM or 50 μM Aβ, reverse Aβ, or vehicle for 24 hour. Human TTR (Calbiochem) was added to slices together with the Aβ treatment at final concentrations of 0.03, 0.3, and 3 μM TTR. sAPPα was obtained from Sigma (St. Louis, Mo.). Unless otherwise stated, all sAPPα treatments were performed at 1 nM 48 hours prior to the addition of Aβ. The 10 amino acid fragment of the carboxyl-terminal region of sAPPα (592-601 of APP695; SEVKMDAEFR was added according to the same protocol for sAPPα. Because a variable amount of tissue was obtained from each patient, not all treatments were performed on all patients.

hippocampi of mice = assay: Stereotaxic injection into mouse hippocampus, TTR immunohistochemistry; assay type: in vivo
Experimental: Ten week old B6/SJL mice were stereotaxically injected on the right side of their hippocampi with sAPPα, a 10 amino acid fragment, or a scrambled 10-mer to an estimated 1 nM intra-hippocampal concentration. The contralateral sides were injected with artificial cerebrospinal fluid. Each injection consisted of […] of solution delivered over the period of 10 minutes. 48 hours after surgery, the mice were perfused with cold PBS, and their hippocampi were dissected and stored in stabilizing solution for subsequent RNA extraction.
48 hours after injection, mice were perfused with 4% PFA. The brains were harvested, hemisected, and fixed in 4% PFA overnight. They were then sunk in 30% sucrose for 24 hours, frozen, and sectioned. Sections were stained with cresyl violet for morphological verification of the injection site. Other sections were stained with goat anti-TTR, and biotinylated secondary antibody to show TTR protein expression, and ToPro3 as a nuclear marker. A control for nonspecific staining was done with goat IgG.
FIG. 13 is a set of stained micrographs showing stereotactic injection of sAPPα decamer into hippocampus induces expression of TTR in normal mouse brain. […] Injection of 1.5 μl of 15.3 nM solution prepared in artificial cerebral spinal fluid (CSF) was performed to approximate a final concentration of 1 nM in the hippocampus. The contralateral side was injected with only artificial CSF and used as control. […] The DNA binding dye ToPro3 was used to visualize nuclei (blue).

hippocampal slices = assay: TUNEL and Nissl staining of hippocampal slices; assay type: cell-based, mouse; conditions: 25 μM or 50 μM Aβ
Experimental: Hippocampal slice cryosections from 3 animals per treatment were stained with terminal deoxynucleotidyl transferase-mediated, dUTP nick end labeling (TUNEL). Cells with DNA fragmentation were determined by the terminal deoxynucleotidyl transferase incorporation of fluorescein isothiocyanate (FITC)-12-dUTP into DNA (In Situ Cell Death Detection kit, Roche Biochem, Indianapolis, Ind.). Other sections were stained with cresyl violet acetate, and the neurons with healthy nuclei as well as the neurons with condensed and clumped chromatin were counted within the neuronal fields.
β-amyloid1-42 and reverse Aβ (Aβ42-1) were obtained from BACHEM (Torrance, Calif.). These polypeptides were dissolved in 0.1% NH3OH at 222 μM. For treatments, Aβ was aggregated at 50 μM in Neurobasal media with B-27 supplement and 1 mM glutamine at 37° C. for 24 hours. Then, the slice culture media was removed, and the slices were treated with 1 mL of 25 μM or 50 μM Aβ, reverse Aβ, or vehicle for 24 hours. Human TTR (Calbiochem) or IGF-2 (Peprotech, Rocky Hill, N.J.) was added to slices together with the Aβ treatment at final concentrations of 3 μM (TTR) or 500 nM (IGF-2). sAPPα was prepared as described previously (Mattson et al., Neuron, 10:243-254 (1993)).
Unless otherwise stated, all sAPPα treatments were performed at 1 nM 48 hours prior to the addition of Aβ. […]

DAEF [peptide of 4 residues within the 10 residue peptide (residues 597-600)]
Protection against Aβ toxicity (percent death) (human cortical slices; 50 μM Aβ, sample from one subject, FIG. 6A): protected against 50 μM Aβ toxicity | TTR after injection into hippocampus (hippocampi of mice; preliminary data): increased TTR

SEVKMDAEFR
Protection against Aβ-induced death (percent death) (human cortical slices; 1 nM 48 hours prior to 50 μM Aβ, four subjects, FIG. 6A): significant protection | Amount of TTR in and around the CA1 hippocampal neurons, immunohistochemistry (hippocampi of mice; 1.5 μl of 15.3 nM solution (about 1 nM final) vs contralateral CSF injected hippocampus, FIG. 13): increased the amount of TTR | Levels of TTR within treated hippocampi (hippocampi of mice; estimated 1 nM intra-hippocampal concentration, 48 hours after injection): increased levels of TTR

β-amyloid1-42 [Aβ]
Number of cells that have lost membrane integrity (human cortical slices; 50 μM Aβ): dramatic increase | Percent death (human cortical slices; 50 μM Aβ vs 50 μM reverse Aβ, FIG. 6A): significantly increased | DNA strand breaks as indicated by TUNEL (hippocampal slices): resulted in DNA strand breaks | Percent of neurons with chromatin condensation (hippocampal slices; FIG. 1): significant increase
